Patent publication US20230131966A1, “FUNGICIDAL AMIDES” (FMC Corporation, priority 2020, published 2023)

Columns and labels:
Type in all cases: in vivo
Phakopsora pachyrhizi = experiment: Test A: Asian soybean rust control on soybean seedlings; settings: 250 ppm, soybean seedlings, 100 = 100% disease control, 0 = no control; for pest or weed control at 250 ppm: Phakopsora pachyrhizi, read-out: Test A disease control rating
[1] = tested on: Puccinia recondita f. sp. tritici; experiment: Test B: wheat leaf rust control on wheat seedlings; settings: 250 ppm, wheat seedlings, 100 = 100% disease control, 0 = no control; for pest or weed control at 250 ppm: Puccinia recondita, read-out: Test B disease control rating
Zymoseptoria tritici = experiment: Test C: wheat leaf blotch control on wheat seedlings; settings: 250 ppm, wheat seedlings, 100 = 100% disease control, 0 = no control; for pest or weed control at 250 ppm: Zymoseptoria tritici, read-out: Test C disease control rating
Plasmopara viticola = experiment: Test D: grape downy mildew control on grape seedlings; settings: 250 ppm, 100 = 100% disease control, 0 = no control; for pest or weed control at 250 ppm: Plasmopara viticola, read-out: Test D disease control rating
Botrytis cinerea = experiment: Test E: tomato Botrytis control on tomato seedlings; settings: 250 ppm, 100 = 100% disease control, 0 = no control; for pest or weed control at 250 ppm: Botrytis cinerea, read-out: Test E disease control rating
Phytophthora infestans = experiment: whole plant or invertebrate; settings: tomato seedlings, 100 = 100% disease control, 0 = no control; for pest or weed control at 250 ppm: Phytophthora infestans, in Solanum lycopersicum, read-out: Test F disease control rating, 250 ppm; for Test F disease control rating: 250 ppm
[2] = tested on: Erysiphe graminis f. sp. tritici; experiment: Test G: wheat powdery mildew control on wheat seedlings; settings: 250 ppm, 100 = 100% disease control, 0 = no control; for pest or weed control at 250 ppm: Blumeria graminis, read-out: Test G disease control rating

SMILES	pest or weed control at 250 ppm (Phakopsora pachyrhizi) [%]	pest or weed control at 250 ppm [1] [%]	pest or weed control at 250 ppm (Zymoseptoria tritici) [%]	pest or weed control at 250 ppm (Plasmopara viticola) [%]	pest or weed control at 250 ppm (Botrytis cinerea) [%]	pest or weed control at 250 ppm (Phytophthora infestans) [%]	pest or weed control at 250 ppm [2] [%]	Test A disease control rating (Phakopsora pachyrhizi) [%]	Test B disease control rating [1] [%]	Test C disease control rating (Zymoseptoria tritici) [%]	Test D disease control rating (Plasmopara viticola) [%]	Test E disease control rating (Botrytis cinerea) [%]	Test F disease control rating (Phytophthora infestans) [%]	Test G disease control rating [2] [%]
COc1ccnc(C(=O)N[C@@H](C)C(=O)OC(C)c2ccc(C3CCCCC3)cc2)c1O (mixture of isomers) [Compound 32, N-[(3-hydroxy-4-methoxy-2-pyridinyl)carbonyl]-L-alanine 1-(4-cyclohexylphenyl)ethyl ester]	100	99	86	18	0	0	0							
COc1ccnc(C(=O)NC(C)C(=O)OC(C)c2ccccc2Cc2ccc(F)cc2)c1O (mixture of isomers) [Compound 13]								100	100	73	50	0	0	0
CCC(OC(=O)[C@H](C)NC(=O)c1nccc(OC)c1OC(C)=O)C1CCCCC1 (single isomer, unassigned) [Compound 169]								100	41	83	17	0	0	35
COc1ccnc(C(=O)N[C@@H](C)C(=O)OC(C)c2ccc(-n3ccc(C(F)(F)F)n3)cc2Cc2ccccc2)c1OC(C)=O (stereo partly drawn) [Compound 94]								38	92	82	10	0	0	0
COc1ccnc(C(=O)N[C@@H](C)C(=O)OC(C)C2CCCc3ccccc32)c1O (single isomer, unassigned) [Compound 184]								100	99	100	64	0	0	0
COc1ccnc(C(=O)N[C@@H](C)C(=O)O[C@@H](C)c2ccc(C3CCCCC3)cc2)c1OC(C)=O [Compound 95, N-[[3-(acetyloxy)-4-methoxy-2-pyridinyl]carbonyl]-L-alanine (1S)-1-(4-cyclohexylphenyl)ethyl ester]	100	100	100	1	0	0	0							
COc1ccnc(C(=O)NC(C)C(=O)OC(C)c2ncc(C(F)(F)F)cc2Cl)c1O (mixture of isomers) [Compound 166]								97	68	0	15	0	0	0
CCC(OC(=O)C(C)NC(=O)c1nccc(OC)c1O)c1ccc(C2CCCCC2)cc1 (mixture of isomers) [Compound 72]								100	92	27	62	0	0	35
COc1ccnc(C(=O)NC(C)C(=O)OC(C)c2ccc(F)cc2Oc2ccc(F)cc2)c1O (mixture of isomers) [Compound 82]								95	55	79	82	0	0	0
COc1ccnc(C(=O)N[C@@H](C)C(=O)OC(C)c2ccccc2Cc2ccc(F)cc2)c1OC(C)=O (single isomer, unassigned) [Compound 22]								100	99	85	61	0	0	0
CCCCCCc1ccc(C(C)OC(=O)C(C)NC(=O)c2nccc(OC)c2O)cc1 (mixture of isomers) [Compound 68]								100	95	97	46	0	40	0
COc1ccnc(C(=O)NC(C)C(=O)OC(C)c2ccc3ccccc3c2)c1OC(C)=O (mixture of isomers) [Compound 75]								100	100	100	61	0	0	0
COc1ccnc(C(=O)N[C@@H](C)C(=O)OC(C)c2ccc(C(C)C)cc2)c1O (stereo partly drawn) [Compound 118]								100	99	86	85	0	0	0
COc1ccnc(C(=O)NC(C)C(=O)OC(C#N)c2ccccc2)c1O (mixture of isomers) [Compound 159]								0	0	0	11	0	0	0
CCC(OC(=O)[C@H](C)NC(=O)c1nccc(OC)c1OCOC(C)=O)c1ccc(C2CCCCC2)cc1 (single isomer, unassigned) [Compound 134]								97	74	64	33	0	0	0
COc1ccnc(C(=O)NC(C)C(=O)OC(C)C2Cc3ccccc3O2)c1OC(C)=O (mixture of isomers) [Compound 186]								94	100	83	14	0	0	0
CCC(OC(=O)[C@H](C)NC(=O)c1nccc(OC)c1O)C1CCCCC1 (single isomer, unassigned) [Compound 182]								100	0	45	15	0	0	0
COc1ccnc(C(=O)N[C@@H](C)C(=O)OC(C)c2ccc(CC3CCCCC3)cc2)c1OC(C)=O (single isomer, unassigned) [Compound 129]								100	100	91	32	0	0	0
